Converted amounts (≈) assume the structure as drawn. Where two headings read alike, the source gives them in different places.
How the values were obtained:
Candida tropicalis = assay: MIC by two-fold dilution, Candida tropicalis; type: cell-based; settings: 10 strains, read-out: Minimum Inhibitory Concentration
Method: (§1) Minimum Inhibitory Concentrations (MICS) of Sertaconazole and Miconazole against 107 yeasts, 47 dermatophytes and 4 fungi were determined by a two-fold dilution method.

Trichophyton rubrus = assay: MIC by two-fold dilution, Trichophyton rubrus; type: cell-based; settings: 10 strains, read-out: Minimum Inhibitory Concentration
Method: as §1

Dermatophytes, Others = assay: MIC by two-fold dilution, other dermatophytes; type: cell-based; settings: 3 strains; read-out: Minimum Inhibitory Concentration
Method: as §1

Gram-positive germs = assay: MIC by two-fold dilution, Gram-positive germs; type: cell-based; settings: 21 strains; read-out: Minimum Inhibitory Concentration
C. albicans 14 = assay: MIC, comparative in vitro testing against Martin compounds; type: cell-based; settings: Casitone medium
Method: (§2) Minimum Inhibitory Concentrations (MICS) of Sertaconazole were also measured in comparison to four of the compounds described in the Martin Patent, including a compound, referred to herein as Martin Compound 1, which has the same structure as Sertaconazole, expect that the sulfur in the benzothiophene ring is replaced by an oxygen.
(§3) The results of comparative in vitro testing of Sertaconazole and these four Martin compounds are shown in the following Table II against 16 microorganisms. The reading time is the time interval from the time of inoculation to the time of measurement.

C. albicans 15 = assay: as above; type: cell-based; settings: Casitone medium
Method: as §2, §3

C. albicans 31 = assay: as above; type: cell-based; settings: YNB medium
Method: as §2, §3

C. albicans 32 = assay: as above; type: cell-based; settings: YNB medium
Method: as §2, §3

C. albicans ATCC E-10231 = assay: as above; type: cell-based; settings: Casitone medium
Method: as §2, §3

C. guillermondii = assay: as above; type: cell-based
Method: as §2, §3

C. krusei 24 = assay: as above; type: cell-based
Method: as §2, §3

C. parapsilosis 19 = assay: as above; type: cell-based
Method: as §2, §3

C. pseudotropicalis 21 = assay: as above; type: cell-based; settings: Sabouraud medium
Method: as §2, §3

C. stellatoidea 36232 = assay: as above; type: cell-based
Method: as §2, §3

C. tropicalis 25 = assay: as above; type: cell-based; settings: YNB medium
Method: as §2, §3

Candida albicans = assay: Vaginal infection by Candida albicans in female mice; type: in vivo; settings: seven days after infection
Description: Besides the above in vivo experiments vaginal infection by Candida albicans was studied in female mice. Standard methods were used. […] Similar results were found in experiments where repeated dosages of active compound were used after infection. These in vivo results confirmed the surprising speed of action of Sertaconazole in comparison to the prior art compounds.

`Clc1ccc(C(Cn2ccnc2)OCc2csc3c(Cl)cccc23)c(Cl)c1` (stereo not drawn) [Sertaconazole] showed an MIC (Candida tropicalis) of 5.6 µg/mL (≈ 12.8 µM), an MIC (Trichophyton rubrus) of 0.4 µg/mL (≈ 0.914 µM) and an MIC (Dermatophytes, Others) of 2.5 µg/mL (≈ 5.71 µM). For the same molecule, the MIC (Gram-positive germs) was 0.97 µg/mL (≈ 2.22 µM), the MIC (C. albicans 14; Candida albicans, 14, 48 h, reading time 48 h, SZ vs M2) was 0.25 µg/mL (≈ 0.571 µM) and the MIC (C. albicans 14; Candida albicans, 14, 48 h, reading time 48 h, SZ vs M3) was 0.5 µg/mL (≈ 1.14 µM). The MIC (C. albicans 14; Candida albicans, 14, 48 h, reading time 48 h, SZ vs M4) was 0.5 µg/mL (≈ 1.14 µM), the MIC (C. albicans 14; Candida albicans, 14, 60 h, reading time 60 h, SZ vs M1) was 1 µg/mL (≈ 2.28 µM) and the MIC (C. albicans 15; Candida albicans, 15, 48 h, reading time 48 h, SZ vs M2) was 0.06 µg/mL (≈ 0.137 µM). It also gave an MIC (C. albicans 15; Candida albicans, 15, 48 h, reading time 48 h, SZ vs M3) of 0.03 µg/mL (≈ 0.0685 µM), an MIC (C. albicans 15; Candida albicans, 15, 48 h, reading time 48 h, SZ vs M4) of 0.03 µg/mL (≈ 0.0685 µM) and an MIC (C. albicans 15; Candida albicans, 15, 60 h, reading time 60 h, SZ vs M1) of 0.5 µg/mL (≈ 1.14 µM). It also gave an MIC (C. albicans 31; Candida albicans, 31, reading time 48 h, SZ vs M2, read-out: MIC) of 4 µg/mL (≈ 9.14 µM), an MIC (C. albicans 31; Candida albicans, 31, reading time 60 h, SZ vs M1, read-out: MIC) of 8 µg/mL (≈ 18.3 µM) and an MIC (C. albicans 31; reading time 48 h, SZ vs M3) of 4 µg/mL (≈ 9.14 µM). The MIC (C. albicans 31; reading time 48 h, SZ vs M4) was 4 µg/mL (≈ 9.14 µM), the MIC (C. albicans 32; Candida albicans, 32, reading time 48 h, SZ vs M2, read-out: MIC) was 4 µg/mL (≈ 9.14 µM) and the MIC (C. albicans 32; Candida albicans, 32, reading time 60 h, SZ vs M1, read-out: MIC) was 8 µg/mL (≈ 18.3 µM). The MIC (C. albicans 32; reading time 48 h, SZ vs M3) was 4 µg/mL (≈ 9.14 µM), the MIC (C. albicans 32; reading time 48 h, SZ vs M4) was 4 µg/mL (≈ 9.14 µM) and the MIC (C. albicans ATCC E-10231; Candida albicans, ATCCE10231, reading time 48 h, SZ vs M2, read-out: MIC) was 0.5 µg/mL (≈ 1.14 µM). It also gave an MIC (C. albicans ATCC E-10231; Candida albicans, ATCCE10231, reading time 60 h, SZ vs M1, read-out: MIC) of 1 µg/mL (≈ 2.28 µM), an MIC (C. albicans ATCC E-10231; reading time 48 h, SZ vs M3) of 0.5 µg/mL (≈ 1.14 µM) and an MIC (C. albicans ATCC E-10231; reading time 48 h, SZ vs M4) of 0.5 µg/mL (≈ 1.14 µM). The MIC (C. guillermondii; 48 h) was 0.125 µg/mL (≈ 0.286 µM), the MIC (C. guillermondii; 48 h, Casitone medium, reading time 48 h, SZ vs M2, read-out: MIC) was 0.25 µg/mL (≈ 0.571 µM) and the MIC (C. guillermondii; 48 h, Casitone medium, reading time 48 h, SZ vs M3, read-out: MIC) was 0.25 µg/mL (≈ 0.571 µM). It also gave an MIC (C. guillermondii; 48 h, Casitone medium, reading time 48 h, SZ vs M4, read-out: MIC) of 0.25 µg/mL (≈ 0.571 µM), an MIC (C. guillermondii; 48 h, YNB medium, reading time 48 h, SZ vs M2, read-out: MIC) of 0.25 µg/mL (≈ 0.571 µM) and an MIC (C. guillermondii; 60 h, Casitone medium, reading time 60 h, SZ vs M1, read-out: MIC) of 0.5 µg/mL (≈ 1.14 µM). For the same molecule, the MIC (C. guillermondii; 60 h, YNB medium, reading time 60 h, SZ vs M1, read-out: MIC) was 0.25 µg/mL (≈ 0.571 µM), the MIC (C. guillermondii; YNB medium, reading time 48 h, SZ vs M4) was 0.125 µg/mL (≈ 0.286 µM) and the MIC (C. krusei 24; Casitone medium, reading time 48 h, SZ vs M4) was 0.125 µg/mL (≈ 0.286 µM). It also gave an MIC (C. krusei 24; Pichia kudriavzevii, 24, 48 h) of 0.125 µg/mL (≈ 0.286 µM), an MIC (C. krusei 24; Pichia kudriavzevii, 24, 48 h, Casitone medium, reading time 48 h, SZ vs M2, read-out: MIC) of 0.25 µg/mL (≈ 0.571 µM) and an MIC (C. krusei 24; Pichia kudriavzevii, 24, 48 h, YNB medium, reading time 48 h, SZ vs M2, read-out: MIC) of 0.25 µg/mL (≈ 0.571 µM). The MIC (C. krusei 24; Pichia kudriavzevii, 24, 48 h, YNB medium, reading time 48 h, SZ vs M3, read-out: MIC) was 0.25 µg/mL (≈ 0.571 µM), the MIC (C. krusei 24; Pichia kudriavzevii, 24, 48 h, YNB medium, reading time 48 h, SZ vs M4, read-out: MIC) was 0.25 µg/mL (≈ 0.571 µM) and the MIC (C. krusei 24; Pichia kudriavzevii, 24, 60 h, Casitone medium, reading time 60 h, SZ vs M1, read-out: MIC) was 1 µg/mL (≈ 2.28 µM). It also gave an MIC (C. krusei 24; Pichia kudriavzevii, 24, 60 h, YNB medium, reading time 60 h, SZ vs M1, read-out: MIC) of 0.25 µg/mL (≈ 0.571 µM), an MIC (C. parapsilosis 19; 19, 48 h, Sabouraud medium, reading time 48 h, SZ vs M2) of 0.25 µg/mL (≈ 0.571 µM) and an MIC (C. parapsilosis 19; 19, 48 h, Sabouraud medium, reading time 48 h, SZ vs M3) of 0.25 µg/mL (≈ 0.571 µM). The MIC (C. parapsilosis 19; 19, 48 h, Sabouraud medium, reading time 48 h, SZ vs M4) was 0.25 µg/mL (≈ 0.571 µM), the MIC (C. parapsilosis 19; 19, 48 h, YNB medium, reading time 48 h, SZ vs M2) was 0.25 µg/mL (≈ 0.571 µM) and the MIC (C. parapsilosis 19; 19, 48 h, YNB medium, reading time 48 h, SZ vs M3) was 0.5 µg/mL (≈ 1.14 µM). For the same molecule, the MIC (C. parapsilosis 19; 19, 48 h, YNB medium, reading time 48 h, SZ vs M4) was 0.5 µg/mL (≈ 1.14 µM), the MIC (C. parapsilosis 19; 19, 60 h, Sabouraud medium, reading time 60 h, SZ vs M1) was 1 µg/mL (≈ 2.28 µM) and the MIC (C. parapsilosis 19; 19, 60 h, YNB medium, reading time 60 h, SZ vs M1) was 0.5 µg/mL (≈ 1.14 µM). It also gave an MIC (C. pseudotropicalis 21; Kluyveromyces marxianus, 21, reading time 48 h, SZ vs M2, read-out: MIC) of 0.03 µg/mL (≈ 0.0685 µM), an MIC (C. pseudotropicalis 21; Kluyveromyces marxianus, 21, reading time 60 h, SZ vs M1, read-out: MIC) of 0.03 µg/mL (≈ 0.0685 µM) and an MIC (C. pseudotropicalis 21; reading time 48 h, SZ vs M3) of 0.03 µg/mL (≈ 0.0685 µM). For the same molecule, the MIC (C. pseudotropicalis 21; reading time 48 h, SZ vs M4) was 0.03 µg/mL (≈ 0.0685 µM), the MIC (C. stellatoidea 36232; Candida albicans, 36232, 48 h, Casitone medium, reading time 48 h, SZ vs M2) was 0.06 µg/mL (≈ 0.137 µM) and the MIC (C. stellatoidea 36232; Candida albicans, 36232, 48 h, Casitone medium, reading time 48 h, SZ vs M3) was 0.06 µg/mL (≈ 0.137 µM). It also gave an MIC (C. stellatoidea 36232; Candida albicans, 36232, 48 h, Casitone medium, reading time 48 h, SZ vs M4) of 0.06 µg/mL (≈ 0.137 µM), an MIC (C. stellatoidea 36232; Candida albicans, 36232, 48 h, Sabouraud medium, reading time 48 h, SZ vs M2) of 0.25 µg/mL (≈ 0.571 µM) and an MIC (C. stellatoidea 36232; Candida albicans, 36232, 48 h, Sabouraud medium, reading time 48 h, SZ vs M3) of 0.5 µg/mL (≈ 1.14 µM). For the same molecule, the MIC (C. stellatoidea 36232; Candida albicans, 36232, 48 h, Sabouraud medium, reading time 48 h, SZ vs M4) was 0.5 µg/mL (≈ 1.14 µM), the MIC (C. stellatoidea 36232; Candida albicans, 36232, 48 h, YNB medium, reading time 48 h, SZ vs M2) was 1 µg/mL (≈ 2.28 µM) and the MIC (C. stellatoidea 36232; Candida albicans, 36232, 48 h, YNB medium, reading time 48 h, SZ vs M3) was 0.5 µg/mL (≈ 1.14 µM). It also gave an MIC (C. stellatoidea 36232; Candida albicans, 36232, 48 h, YNB medium, reading time 48 h, SZ vs M4) of 0.5 µg/mL (≈ 1.14 µM), an MIC (C. stellatoidea 36232; Candida albicans, 36232, 60 h, Casitone medium, reading time 60 h, SZ vs M1) of 0.25 µg/mL (≈ 0.571 µM) and an MIC (C. stellatoidea 36232; Candida albicans, 36232, 60 h, Sabouraud medium, reading time 60 h, SZ vs M1) of 1 µg/mL (≈ 2.28 µM). For the same molecule, the MIC (C. stellatoidea 36232; Candida albicans, 36232, 60 h, YNB medium, reading time 60 h, SZ vs M1) was 4 µg/mL (≈ 9.14 µM), the MIC (C. tropicalis 25; Candida tropicalis, 25, 48 h, reading time 48 h, SZ vs M2) was 8 µg/mL (≈ 18.3 µM) and the MIC (C. tropicalis 25; Candida tropicalis, 25, 48 h, reading time 48 h, SZ vs M3) was 4 µg/mL (≈ 9.14 µM). For the same molecule, the MIC (C. tropicalis 25; Candida tropicalis, 25, 48 h, reading time 48 h, SZ vs M4) was 4 µg/mL (≈ 9.14 µM), the MIC (C. tropicalis 25; Candida tropicalis, 25, 60 h, reading time 60 h, SZ vs M1) was 8 µg/mL (≈ 18.3 µM) and the animals healed (Candida albicans) was 75%.
